According to patent publication US20050221381A1, “Method for isolating ligands” (priority 2002, published 2005):
Entries after “also recorded” stand apart in the source; their conditions may differ. Like-named read-outs stand apart in the source and are kept apart here.

Legend:
[1] = target: T1, soluble DRB1*0401 molecules (DR4) (Homo sapiens, UniProt P01903+P01911, A100K/A169T/F76Y/I96L/K127E/L162R/M171V/N62H/P40V/Q125Y/R42H/S133A/S149N/S66Y/V115G/V209L/W38E); format: binding; design: key to DR4 binding: +++: high binding affinity; ++: moderate binding affinity; +: low binding affinity; −: no binding; key to Binding to DRB1 *0401: −: no binding/T cell response; +/−: weak binding/T cell response; +: intermediate binding/T cell response; ++: strong binding/T cell response
T1 construct: Soluble HLA class I A*0201 and HLA class II DRA1*0101/DRB1*0101/Ii, DRA1*0101/DRB1*0401/Ii and DRA1*0101/DRB1*0404/Ii molecules were expressed in SC-2 cells; made in house; host or cells: SC-2 cells

[2] = system: HLA-DRB1*0401-transgenic mice splenocytes; format: in vivo, mouse; design: key to DRB1*0401 mice total SC (T cell response) / DRB1*0401 mice CD4+ (T cell response): −: no binding/T cell response; +/−: weak binding/T cell response; +: intermediate binding/T cell response; ++: strong binding/T cell response
[3] = target: DRB1*1101 (Homo sapiens, UniProt P01903+P01911, A100R/A169T/A87E/I96F/K41T/L162R/M171V/P40S/Q125H/Q178H/Q39Y/Q99D/R42S/S66Y/T262R/V115G/W38E); assay: Peptide-competition assay with biotinylated CLIP peptide (ELISA); format: binding; design: key: −: no binding/T cell response; +/−: weak binding/T cell response; +: intermediate binding/T cell response; ++: strong binding/T cell response; details: for Binding to DRB1*1101: longer peptides no. 1500-1505, peptide-competition assay
Method: (§1) The binding affinities to DRB1*0701 and DRB1*1101 were tested by a peptide-competition assay (Reay et al., 1992). Briefly, binding of the biotinylated CLIP peptide (reference peptide) has been used for monitoring of HLA:peptide complex formation. […] In the case of lower affinity peptides they should be added in excess to the reference peptide to compete for occupancy of HLA binding grove. […] Alternatively, comparing of the amount of reference peptide bound to HLA molecules in the presence or absence of competitor peptide one can determine the binding activity of the peptide of interest.
(§2) In the present peptide-competition assay conditions of peptide binding were similar to described above. Soluble HLA molecules were used in the concentration of 0.5 μM and biotinylated CLIP was added to all samples in the final concentration of 2 μM. Competitor peptides were added in three different concentrations: 0.25, 5 and 100 μM. Binding reaction was performed in PBS buffer (pH 7.4) for 18 hours at 37° C. […] Briefly, MaxiSorb 96-well plates (Nunc, Denmark) were coated with mouse anti-αβ antibody L243 (purified from ATCC HB-55) by overnight incubation with 50 μl of 10 μg/ml dilution in PBS at 4° C. Non-specific binding to the plastic was blocked by incubation with T-PBS containing 3% of BSA for 2 hours at 37° C. and binding reactions were then “captured” for 2 hours at room temperature. […] The optical density at 405 nm was measured on a microplate reader SUNRISE (Tecan).

[4] = target: DRB1*0701 (Homo sapiens, UniProt P01903+P01911, A100R/A102G/A103Q/D57E/D86V/E43K/F76Y/K127E/L162R/M171V/P40G/Q125H/Q99D/R33Q/R42Y/R54Q/S133A/S66F/T210M/V115G/Y107V/Y59L/Y89S); assay: as above; format: binding; design: key: −: no binding/T cell response; +/−: weak binding/T cell response; +: intermediate binding/T cell response; ++: strong binding/T cell response
Method: as §1, §2

[5] = target: T2, soluble DRB1*0101 molecules (Homo sapiens, UniProt P01903+P01911, A100R/D57E/F55L/F60I/F76Y/I96L/L162R/M171V/P40L/Q125E/R42F/V115G/Y59C); assay: Peptide binding assay, SDS-stability assay; design: key: −: no binding/T cell response; +/−: weak binding/T cell response; +: intermediate binding/T cell response; ++: strong binding/T cell response
T2 construct: Soluble HLA class I A*0201 and HLA class II DRA1*0101/DRB1*0101/Ii, DRA1*0101/DRB1*0401/Ii and DRA1*0101/DRB1*0404/Ii molecules were expressed in SC-2 cells; made in house; host or cells: SC-2 cells

[6] = target: T1, soluble DRB1*0401 molecules (DR4); format: binding; design: key: −: no binding/T cell response; +/−: weak binding/T cell response; +: intermediate binding/T cell response; ++: strong binding/T cell response
[7] = target: T3, soluble DRB1*0404 molecules (Homo sapiens, UniProt P01903+P01911, A100R/A169T/F76Y/I96L/K127E/L162R/M171V/N62H/P40V/Q125Y/R42H/S133A/S149N/S66Y/V209L/W38E); assay: Peptide binding assay, SDS-stability assay; design: key: −: no binding/T cell response; +/−: weak binding/T cell response; +: intermediate binding/T cell response; ++: strong binding/T cell response
T3 construct: Soluble HLA class I A*0201 and HLA class II DRA1*0101/DRB1*0101/Ii, DRA1*0101/DRB1*0401/Ii and DRA1*0101/DRB1*0404/Ii molecules were expressed in SC-2 cells; made in house; host or cells: SC-2 cells

[8] = target: T1, soluble DRB1*0401 molecules (DR4); format: binding; design: key: +++: high binding affinity; ++: moderate binding affinity; +: low binding affinity; −: no binding; details: individual pp65 15mer, SDS-stability assay
[9] = target: T2, soluble DRB1*0101 molecules; assay: Peptide binding assay, SDS-stability assay; design: key: +++: high binding affinity; ++: moderate binding affinity; +: low binding affinity; −: no binding; details: individual pp65 15mer
[10] = target: T4, soluble DRB1*0401 molecules (Homo sapiens, UniProt P01903+P01911, A100K/A169T/F76Y/I96L/K127E/L162R/M171V/N62H/P40V/Q125Y/R42H/S133A/S149N/S66Y/V115G/V209L/W38E); assay: Epitope capture from peptide mixtures, gel filtration and MALDI-TOF MS of bound peptides; format: binding
T4 construct: Soluble HLA class I A*0201 and HLA class II DRA1*0101/DRB1*0101/Ii, DRA1*0101/DRB1*0401/Ii and DRA1*0101/DRB1*0404/Ii molecules were expressed in SC-2 cells; made in house; host or cells: SC-2 cells
From the text: After peptide binding reaction with soluble HLA molecules, HLA-peptide complexes were separated from free peptides by gel-filtration chromatography on Superdex-200 column (AKTAdesign, Amersham Pharmacia Biotech). HLA-containing fractions were collected, and bound peptides were reconstituted from the complexes by adding TFA to the final concentration of 1%. Peptides were desolted by Ziptip purification and analyzed by MALDI-TOF mass-spectrometry.
Second, the ability to capture peptides binding to HLA class II molecules from the mixture of two high affinity ligands was tested. The binding reaction contained 1 μM of soluble DRB1*0401 molecules and 5 μM of each YAR and 1242 peptide. After the HLA-peptide complexes were formed, they were separated from the excess of free peptides by gel filtration chromatography. Fractions containing MHC molecules were collected. Bound peptides were eluted from the complexes and analyzed by mass-spectrometry.
Third, it was investigated if the binding capacity of the high affinity ligand would be influenced by the excess of low affinity peptide. […] Peptide binding was assessed by SDS-stability assay and verified by MS analysis (FIG. 3).
The final concentration of each peptide in binding reaction was 5 μM, except 1236 added in 55 μM, meaning that the concentration of each individual binding peptide was 20-fold lower than final concentration of all peptides. DRB1*0401 molecules were added to 1 μM. The formation of MHC-peptide complexes was evaluated as described above, using single peptides as controls (FIG. 4). […] The result of this analysis yielded the two peptides with highest binding affinities: 1242 and YAR (see Table 1). The peptides with moderate and/or low affinities were not found in the complexes, probably due to the high concentration of strong competitors used in this assay.

[11] = CD4+ fraction of splenocytes, IFN-γ ELISpot
[12] = IFN-gamma ELISpot, enriched CD4+ fraction of splenocytes of HLA-DR4 transgenic mice vaccinated with the longer peptide, ex vivo re-stimulation
[13] = IFN-gamma ELISpot, total splenocytes of HLA-DR4 transgenic mice vaccinated with the longer peptide, ex vivo re-stimulation
[14] = total splenocytes, ex vivo restimulation, IFN-γ ELISpot
[15] = longer peptides no. 1500-1505, peptide-competition assay

Sequence	Binding to DRB1 *0401 ([1]; soluble DRB1*0401 molecules)	DRB1*0401 mice CD4+ (T cell response) [2, 11]	DRB1*0401 mice CD4+ (T cell response) [2, 12]	DRB1*0401 mice total SC (T cell response) [2, 13]	DRB1*0401 mice total SC (T cell response) [2, 14]	Binding to DRB1 1101 [3]	Binding to DRB1*1101 [3]	Binding to DRB1 *0701 ([4]; DRB1*0701)	Binding to DRB1 *0701 [4, 15]	Binding to DRB1*0101 ([5]; longer peptides no. 1500-1505)	Binding to DRB1*0101 ([5]; soluble DRB1*0101 molecules)	Binding to DRB1*0401 ([6]; longer peptides no. 1500-1505)	Binding to DRB1*0404 ([7]; soluble DRB1*0404 molecules)	Binding to DRB1*0404 ([7]; longer peptides no. 1500-1505)	other results
TSGVMTRGRLKAESTVAPEEDTDE [Peptide 1504]	+	++	++	+	+	+	+	−	−	+	+	+	++		
EPMSIYVYALPLKML [Peptide 107]															Binding to DRB1*0401 [8]: −; Binding to DRB1*0101 [9]: −
LLQRGPQYSEHPTFTSQYRIQG [Peptide 1502]						++	++	−	−	−	−		−	−	Binding to DRB1 *0401 [1]: +; CD4+ / CD8+ response of separated splenocytes ([2]; mouse, in vivo): simultaneous CD4+ and CD8+ response; DRB1*0401 mice CD4+ (T cell response) ([2]; mouse, in vivo): ++; DRB1*0401 mice total SC (T cell response) ([2]; mouse, in vivo, sc): + and ++; Binding to DRB1*0401 [6]: +
PSLILVSQYTPDSTPCHRGDNQLQVQHTR [Peptide 1500]	++	+	+	+	+	−	−	−	−	+	+	++	++	++	
IYVYALPLKMLNIPS [Peptide 111]															Binding to DRB1*0401 [8]: −; Binding to DRB1*0101 [9]: −
YARFQSQTTLKQKT [reference compound]															Peptides captured from pool of 10 peptides, MS analysis ([10]; each peptide 5 μM, 1236 55 μM, DRB1*0401 1 μM): captured by DR4 molecules; Peptides found in complexes with MHC molecules by MS ([10]; mixture of two ligands, 5 μM each, 1 μM DRB1*0401): revealed in the complexes with MHC molecules; DR4 binding [1]: +++
YRHTWDRHDEGAAQGDDDVW [Peptide 1503]	+/−	−	−	−	−	−	−	−	−	−	−	+/−	−	−	Binding to soluble DRB1*0401 molecules (in words) ([1]; SDS-stability assay): weak affinity; Immunogenicity in DRB1*0401-transgenic mice (in words) ([2]; total splenocytes, INF-gamma ELISpot (FIG. 12)): did not induce immune response; also recorded: not immunogenic
